Test results as given in patent US11905253B2, “Compounds and pharmaceutical compositions for reducing CD95-mediated cell motility” (INSTITUT NATIONAL DE LA SANTE ET DE LA RECHERCHE MEDICALE …, priority 2018, dated 2024).

Experiments:
[1] = molecular target: T1, CD95/FADD interaction (DD-FADD/DD-CD95) (Homo sapiens, UniProt P25445+Q13158); assay: Renilla luciferase protein-fragment complementation assay (PCA), DD-FADD-F1 / DD-CD95-F2; assay type: cell-based; conditions: luminescence
T1 construct: DD corresponds to amino acids 210 to 303 of CD95; expressed in transfected cells; host or cells: HEK293T
T1 sequence (P25445 226-319 limits assumed): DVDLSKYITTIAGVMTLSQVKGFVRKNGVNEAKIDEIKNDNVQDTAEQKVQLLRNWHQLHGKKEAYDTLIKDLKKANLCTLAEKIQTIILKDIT
T1 sequence (Q13158 97-181 limits assumed): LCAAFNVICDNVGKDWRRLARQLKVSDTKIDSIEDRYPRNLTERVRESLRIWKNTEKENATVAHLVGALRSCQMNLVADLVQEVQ
Description: (§1) A. SH3—PLCγ1-F1 or DD-FADD-F1 (inset) was co-transfected into HEK293T cells along with whole CID-CD95-F2 or DD-CD95-F2 (inset). After 24 h, cells were exposed for 4 h to different compounds according to the invention at different concentrations and luminescence was assessed. The tested compounds were the compounds number 2, 3, 4, 5, 6, 7, 10, 11, 13 and 14.
(§2) F1 corresponds to the N-terminal domain of Renilla luciferase enzyme split into two fragments (F1 and F2, F2 being the C-terminal domain—see Stefan, E. et al. Proc Natl Acad Sci USA 104, 16916-21 (2007)). These F1 and F2 domains were co-expressed in HEK cells, whereupon the interaction between CD95-CID and PLCγ1, or CD95-DD and DD-FADD, allowed protein refolding and subsequent recovery of Renilla luciferase activity.
(§3) CID corresponds to amino acids 175 to 210 of CD95; DD corresponds to amino acids 210 to 303 of CD95.
(§4) Renilla luciferase-based protein-fragment complementation assay (PCA): HEK293T cells were electroporated with 10 μg DNA using a BTM-830 electroporation generator (BTX Instrument Division, Harvard Apparatus). Transfected cells were cultured for 24 h prior to PCA analyses as previously described (Poissonnier, A. et al., Immunity. 2016, 45, 209-223). Briefly, transfected cells (10^6) were washed and resuspended in 100 μL PBS and placed in OptiPlate-96 plates (Perkin-Elmer, Waltham, Mass., USA). Coelenterazine-h (5 μM, Sigma-Aldrich) was added to each well and Renilla luciferase activity was monitored for the first 10 seconds using Infinite200Pro (Tecan, Männedorf, Switzerland).

[2] = molecular target: T2, CD95/PLCγ1 interaction (SH3-PLCg1/CID-CD95) (Homo sapiens, UniProt P19174); assay: Renilla luciferase protein-fragment complementation assay (PCA), SH3-PLCγ1-F1 / CID-CD95-F2; assay type: cell-based; conditions: luminescence; for IC50: HEK293T cells, exposed 4 h
T2 construct: SH3—PLCγ1-F1 or DD-FADD-F1 (inset) was co-transfected into HEK293T cells; expressed in transfected cells; host or cells: HEK293T
T2 sequence (P19174 791-851): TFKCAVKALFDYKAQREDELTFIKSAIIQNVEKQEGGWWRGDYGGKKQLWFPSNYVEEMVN
Description: as §1, §2, §3, §4

[3] = tested on: CD95-mediated Ca2+ response in Th17 cells; assay: CD95-mediated Ca2+ response in Th17 cells (FIG. 5); assay type: cell-based, human; conditions: 1 μM, 1 h pre-incubation, cl-CD95L 100 ng/mL
Description: All cells were purchased from ATCC (Molsheim Cedex, France). The T cell lines H9 and CEM were cultured in RPMI supplemented with 8% heat-inactivated FCS (v/v) and 2 mM L-glutamine at 37° C./5% CO2. HEK293T cells were cultured at 37° C./5% CO2 in DMEM supplemented with 8% heat-inactivated FCS and 2 mM L-glutamine. PBMCs were isolated from buffy-coat by density gradient centrifugation on lymphocyte separation medium (Eurobio, Les Ulis, France). Th17 cells (CD4+CCR6+CXCR3−) were sorted from PBMCs using a Th17 Enrichment kit (StemCell Technologies, Grenoble, France). Human umbilical vein endothelial cells (HUVEC) were grown in Endothelial Growth Medium (EGM) supplemented with 2% FCS and EGM-2 Bullet Kit (Lonza, Levallois-Perret, France).
Th17 cells were pre-incubated for 1 h with TAT-control, minCID, or compound 13 (each at 1 μM), and then stimulated with cl-CD95L (100 ng/mL). [Ca^2+]CYT was assessed in Fluo2 LR-AM (2 μM)-loaded cells.

| IC50 ([1]; HEK293T cells, exposed 4 h) | IC50 [2] | Compound | further results |
| --- | --- | --- | --- |
| 33.2 µM | 34.7 µM | CCCCCCCCCCCCCCCCCC(=O)N(CCN)C(CCCNC(=N)N)C(=O)NCCN(C(=O)CCCCCN)C(Cc1cnc[nH]1)C(=O)NCCN(C(=O)CCCCNC(=N)N)C(CCCCN)C(N)=O (centres unmarked) [Compound 1] | – |
| 311 µM | 315 µM | N=C(N)NCCCCC(=O)N(CCNC(=O)C(Cc1cnc[nH]1)N(CCNC(=O)C(CCCNC(=N)N)N(CCN)C(=O)CCS)C(=O)CCCCCC(N)=O)C(CCCCN)C(N)=O (centres unmarked) [Compound 2] | – |
| 246 µM | 185 µM | N=C(N)NCCCCC(=O)N(CCNC(=O)C(Cc1cnc[nH]1)N(CCNC(=O)C(CCCNC(=N)N)N(CCN)C(=O)CCS)C(=O)CCc1c[nH]c2ccccc12)C(CCCCN)C(N)=O (centres unmarked) [Compound 3] | – |
| 245 µM | 203 µM | N=C(N)NCCCCC(=O)N(CCNC(=O)C(Cc1cnc[nH]1)N(CCNC(=O)C(CCCNC(=N)N)N(CCN)C(=O)CCS)C(=O)CCC1CNc2ccccc21)C(CCCCN)C(N)=O (centres unmarked) [Compound 4] | – |
| 213 µM | 196 µM | N=C(N)NCCCCC(=O)N(CCNC(=O)C(Cc1cnc[nH]1)N(CCNC(=O)C(CCCNC(=N)N)N(CCN)C(=O)CCS)C(=O)CCc1ccc(O)cc1)C(CCCCN)C(N)=O (centres unmarked) [Compound 5] | – |
| 277 µM | 356 µM | CC(O)C(N)C(=O)NCCN(C(=O)CCS)C(CCCNC(=N)N)C(=O)NCCN(C(=O)CCc1c[nH]c2ccccc12)C(Cc1c[nH]cn1)C(=O)NCCN(C(=O)CCCCNC(=N)N)C(CCCCN)C(N)=O (centres unmarked) [Compound 6] | – |
| 325 µM | 78.6 µM | CC(O)C(N)C(=O)NCCN(C(=O)CCS)C(Cc1c[nH]c2ccccc12)C(=O)NCCN(C(=O)CCCCCN)C(Cc1cnc[nH]1)C(=O)NCCN(C(=O)CCCCNC(=N)N)C(CCCCN)C(N)=O (centres unmarked) [Compound 7] | – |
| 448 µM | 400 µM | N=C(N)NCCCCC(=O)N(CCNC(=O)C(N)CS)C(CCCCN)C(=O)NCCN(C(=O)CCc1c[nH]cn1)C(CCCNC(=N)N)C(=O)NCCNC(=O)CCCCCN (centres unmarked) [Compound 10] | – |
| 629 µM | 309 µM | CC(O)CC(=O)NC(CS)C(=O)NCCN(C(=O)CCCCNC(=N)N)C(CCCCN)C(=O)NCCN(C(=O)CCc1c[nH]cn1)C(CCCNC(=N)N)C(=O)NCCNC(=O)CCCCCN (centres unmarked) [Compound 11] | – |
| 319 µM | 229 µM | CC(O)CC(=O)N(CCN)C(CS)C(=O)NCCN(C(=O)CCCCNC(=N)N)C(CCCCN)C(=O)NCCN(C(=O)CCc1c[nH]cn1)C(CCCNC(=N)N)C(=O)NCCNC(=O)CCCCCN (centres unmarked) [Compound 12] | – |
| – | 77.2 µM | CC(O)C(N)C(=O)NCCN(C(=O)CCS)C(CCCNC(=N)N)C(=O)NCCN(C(=O)CCCCCN)C(Cc1cnc[nH]1)C(=O)NCCN(C(=O)CCCCNC(=N)N)C(CCCCN)C(N)=O (centres unmarked) [Compound 13] | IC50 DD-FADD/DD-CD95 ([1]; HEK293T cells, exposed 4 h): ns |
| 3800 µM | 75.2 µM | N=C(N)NCCCCC(=O)N(CCNC(=O)C(Cc1cnc[nH]1)N(CCNC(=O)C(CCCNC(=N)N)N(CCN)C(=O)CCS)C(=O)CCCCCN)C(CCCCN)C(N)=O (centres unmarked) [Compound 14] | – |
| 164 µM | 60.9 µM | CCC(=O)N(CCN)C(CCCNC(=N)N)C(=O)NCCN(C(=O)CCCCCN)C(Cc1cnc[nH]1)C(=O)NCCN(C(=O)CCCCNC(=N)N)C(CCCCN)C(N)=O (centres unmarked) [Compound 15] | – |
| 3930 µM | 79 µM | N=C(N)NCCCCC(=O)N(CCNC(=O)C(Cc1cnc[nH]1)N(CCNC(=O)C(CCCNC(=N)N)N(CCN)C(=O)CCO)C(=O)CCCCCN)C(CCCCN)C(N)=O (centres unmarked) [Compound 16] | – |
| 720 µM | 343 µM | N=C(N)NCCCCC(=O)N(CCNC(=O)C(Cc1cnc[nH]1)N(CCNC(=O)C(CCCNC(=N)N)N(CCN)C(=O)CCC(N)=O)C(=O)CCCCCN)C(CCCCN)C(N)=O (centres unmarked) [Compound 17] | – |
| – | 655 µM | N=C(N)NCCCC(C(=O)NCCN(C(=O)CCCCCN)C(Cc1cnc[nH]1)C(=O)NCCN(C(=O)CCc1ccc(O)cc1)C(CCCCN)C(N)=O)N(CCN)C(=O)CCS (centres unmarked) [Compound 26] | – |
| – | 856 µM | N=C(N)NCCCC(C(=O)NCCN(C(=O)CCCCCN)C(Cc1cnc[nH]1)C(=O)NCCN(C(=O)CCc1ccc(N)cc1)C(CCCCN)C(N)=O)N(CCN)C(=O)CCS (centres unmarked) [Compound 27] | – |
| 2650 µM | 343 µM | N=C(N)NCCCC(C(=O)NCCN(C(=O)CCCCCN)C(Cc1cnc[nH]1)C(=O)NCCN(C(=O)CCc1c[nH]c2ccccc12)C(CCCCN)C(N)=O)N(CCN)C(=O)CCS (centres unmarked) [Compound 28] | – |
| 4250 µM | 907 µM | N=C(N)NCCCCC(=O)N(CCNC(=O)C(Cc1cnc[nH]1)N(CCNC(=O)C(Cc1cccnc1)N(CCN)C(=O)CCS)C(=O)CCCCCN)C(CCCCN)C(N)=O (centres unmarked) [Compound 30] | – |
| 173 µM | 85.5 µM | N=C(N)NCCCCC(=O)N(CCNC(=O)C(Cc1cnc[nH]1)N(CCNC(=O)C(Cc1c[nH]c2ccccc12)N(CCN)C(=O)CCS)C(=O)CCCCCN)C(CCCCN)C(N)=O (centres unmarked) [Compound 31] | – |
| – | – | minCID: minimum domain of CID required for interaction with PLCγ1; amino acids 182-188 (TCRKHRK) (SEQ ID NO: 1) of human CD95; positive control (minCID corresponding to amino acids 182-188 of human CD95; listed as Homo sapiens) [reference compound] | effect on the CD95/FADD interaction ([1]; HEK cells, 4 h, FIGS. 1A, 1B, 1C (inset)): without affecting the CD95/FADD interaction; CD95-mediated Ca2+ response in Th17 cells [3]: inhibited; disruption of the CD95/PLCγ1 interaction ([2]; HEK cells, 4 h, FIGS. 1A, 1B, 1C): disrupt the CD95/PLCγ1 interaction |
